Like-named read-outs stand apart in the source and are kept apart here.
Tests used:
Assay type in all cases: binding
[1] = target: T1, HeLa cell extract proteins (Homo sapiens, UniProt P24752)
T1 construct: endogenous in cells; host or cells: HeLa cell extract
T1 sequence (P24752 34-427): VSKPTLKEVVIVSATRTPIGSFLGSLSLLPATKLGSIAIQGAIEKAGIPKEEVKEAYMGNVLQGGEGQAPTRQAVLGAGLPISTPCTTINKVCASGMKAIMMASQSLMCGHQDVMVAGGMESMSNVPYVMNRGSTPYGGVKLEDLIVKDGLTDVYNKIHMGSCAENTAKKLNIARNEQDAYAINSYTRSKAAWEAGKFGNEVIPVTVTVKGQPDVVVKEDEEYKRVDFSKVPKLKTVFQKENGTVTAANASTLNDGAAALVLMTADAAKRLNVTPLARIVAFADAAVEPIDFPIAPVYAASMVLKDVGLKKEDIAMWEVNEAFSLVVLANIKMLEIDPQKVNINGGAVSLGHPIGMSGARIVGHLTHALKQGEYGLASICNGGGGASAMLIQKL

[2] = target: T2, HeLa cell extract proteins (Homo sapiens, UniProt P35579)
T2 construct: endogenous in cells; host or cells: HeLa cell extract

[3] = target: T3, HeLa cell extract proteins (Homo sapiens, UniProt P33993)
T3 construct: endogenous in cells; host or cells: HeLa cell extract

[4] = target: T4, HeLa cell extract proteins (Homo sapiens, UniProt P26599)
T4 construct: endogenous in cells; host or cells: HeLa cell extract

[5] = target: T5, HeLa cell extract proteins (Homo sapiens, UniProt Q99613)
T5 construct: endogenous in cells; host or cells: HeLa cell extract

[6] = target: T6, HeLa cell extract proteins (Homo sapiens, UniProt O14980)
T6 construct: endogenous in cells; host or cells: HeLa cell extract

[7] = target: T7, HeLa cell extract proteins (Homo sapiens, UniProt P18669)
T7 construct: endogenous in cells; host or cells: HeLa cell extract

[8] = target: T8, HeLa cell extract proteins (Homo sapiens, UniProt Q13126)
T8 construct: endogenous in cells; host or cells: HeLa cell extract
T8 sequence (Q13126 1-283): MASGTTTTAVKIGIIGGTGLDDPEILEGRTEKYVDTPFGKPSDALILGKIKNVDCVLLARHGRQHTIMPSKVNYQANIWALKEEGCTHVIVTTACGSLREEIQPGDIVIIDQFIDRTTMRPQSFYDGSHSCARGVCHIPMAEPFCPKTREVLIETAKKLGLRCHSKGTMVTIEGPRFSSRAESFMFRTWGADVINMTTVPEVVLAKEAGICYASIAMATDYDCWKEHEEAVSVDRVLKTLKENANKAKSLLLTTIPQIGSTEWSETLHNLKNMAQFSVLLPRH

[9] = target: T9, HeLa cell extract proteins (Homo sapiens, UniProt P62633)
T9 construct: endogenous in cells; host or cells: HeLa cell extract

[10] = target: T10, HeLa cell extract proteins (Homo sapiens, UniProt P27348)
T10 construct: endogenous in cells; host or cells: HeLa cell extract
T10 sequence (P27348 1-245): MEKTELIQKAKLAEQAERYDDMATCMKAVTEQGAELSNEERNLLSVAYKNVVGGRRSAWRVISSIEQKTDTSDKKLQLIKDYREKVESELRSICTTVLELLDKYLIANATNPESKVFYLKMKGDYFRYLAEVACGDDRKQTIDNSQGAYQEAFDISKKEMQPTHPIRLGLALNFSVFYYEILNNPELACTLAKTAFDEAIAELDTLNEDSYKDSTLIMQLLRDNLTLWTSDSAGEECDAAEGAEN

[11] = target: T11, HeLa cell extract proteins (Homo sapiens, UniProt Q13310)
T11 construct: endogenous in cells; host or cells: HeLa cell extract

[12] = target: T12, HeLa cell extract proteins (Homo sapiens, UniProt Q99460)
T12 construct: endogenous in cells; host or cells: HeLa cell extract

[13] = target: T13, HeLa cell extract proteins (Homo sapiens, UniProt P62979)
T13 construct: endogenous in cells; host or cells: HeLa cell extract

[14] = target: T14, HeLa cell extract proteins (Homo sapiens, UniProt P63167)
T14 construct: endogenous in cells; host or cells: HeLa cell extract

[15] = target: T15, HeLa cell extract proteins (Homo sapiens, UniProt Q709F0)
T15 construct: endogenous in cells; host or cells: HeLa cell extract
T15 sequence (Q709F0 1-780): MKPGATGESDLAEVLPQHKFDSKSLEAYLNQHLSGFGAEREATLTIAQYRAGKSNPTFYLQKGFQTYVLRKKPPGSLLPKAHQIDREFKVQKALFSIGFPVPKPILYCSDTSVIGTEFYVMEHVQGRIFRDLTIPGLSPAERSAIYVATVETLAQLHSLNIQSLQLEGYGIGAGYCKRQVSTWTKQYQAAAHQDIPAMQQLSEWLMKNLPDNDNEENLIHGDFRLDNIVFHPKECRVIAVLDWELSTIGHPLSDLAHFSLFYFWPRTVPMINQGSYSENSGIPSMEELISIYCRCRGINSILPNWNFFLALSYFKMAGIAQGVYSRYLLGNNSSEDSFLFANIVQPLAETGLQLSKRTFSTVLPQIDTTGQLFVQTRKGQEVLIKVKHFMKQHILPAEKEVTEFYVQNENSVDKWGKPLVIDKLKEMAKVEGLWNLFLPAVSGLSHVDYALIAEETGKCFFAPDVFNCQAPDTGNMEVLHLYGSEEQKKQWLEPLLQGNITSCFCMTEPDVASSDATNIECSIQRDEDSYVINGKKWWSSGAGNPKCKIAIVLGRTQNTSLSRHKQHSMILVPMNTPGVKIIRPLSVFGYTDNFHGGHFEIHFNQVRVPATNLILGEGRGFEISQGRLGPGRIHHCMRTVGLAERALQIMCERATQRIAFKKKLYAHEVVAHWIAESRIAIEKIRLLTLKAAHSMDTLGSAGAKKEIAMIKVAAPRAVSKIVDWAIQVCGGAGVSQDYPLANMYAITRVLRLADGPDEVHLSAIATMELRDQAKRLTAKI

[16] = target: T16, HeLa cell extract proteins (Homo sapiens, UniProt Q9H974)
T16 construct: endogenous in cells; host or cells: HeLa cell extract

[17] = HeLa, protein PGAM1 (SIMILAR TO PHOSPHOGLYCERATE MUTASE 1 ISOFORM 1.)

T11 sequence (Q13310 whole entry): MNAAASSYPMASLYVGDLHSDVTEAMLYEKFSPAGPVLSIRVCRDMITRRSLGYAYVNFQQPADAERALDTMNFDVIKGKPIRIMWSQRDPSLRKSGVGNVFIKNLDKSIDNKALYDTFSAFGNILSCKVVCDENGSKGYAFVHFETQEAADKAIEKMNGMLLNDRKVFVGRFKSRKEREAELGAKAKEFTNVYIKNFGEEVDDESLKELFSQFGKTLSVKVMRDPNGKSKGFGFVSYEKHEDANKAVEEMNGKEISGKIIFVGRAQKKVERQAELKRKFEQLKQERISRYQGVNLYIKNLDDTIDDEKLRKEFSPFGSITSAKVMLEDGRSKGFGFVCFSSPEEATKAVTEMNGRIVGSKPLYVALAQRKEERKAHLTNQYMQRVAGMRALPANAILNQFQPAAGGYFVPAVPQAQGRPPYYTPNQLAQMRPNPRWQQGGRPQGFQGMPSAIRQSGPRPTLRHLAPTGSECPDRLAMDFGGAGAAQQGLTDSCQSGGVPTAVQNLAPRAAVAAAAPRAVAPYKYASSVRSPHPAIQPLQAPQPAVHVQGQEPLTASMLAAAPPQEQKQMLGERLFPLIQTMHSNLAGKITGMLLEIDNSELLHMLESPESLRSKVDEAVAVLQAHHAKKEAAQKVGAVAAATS
T14 sequence (P63167 whole entry): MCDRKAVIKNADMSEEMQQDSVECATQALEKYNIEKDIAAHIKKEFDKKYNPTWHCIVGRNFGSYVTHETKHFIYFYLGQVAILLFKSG
T3 sequence (P33993 whole entry): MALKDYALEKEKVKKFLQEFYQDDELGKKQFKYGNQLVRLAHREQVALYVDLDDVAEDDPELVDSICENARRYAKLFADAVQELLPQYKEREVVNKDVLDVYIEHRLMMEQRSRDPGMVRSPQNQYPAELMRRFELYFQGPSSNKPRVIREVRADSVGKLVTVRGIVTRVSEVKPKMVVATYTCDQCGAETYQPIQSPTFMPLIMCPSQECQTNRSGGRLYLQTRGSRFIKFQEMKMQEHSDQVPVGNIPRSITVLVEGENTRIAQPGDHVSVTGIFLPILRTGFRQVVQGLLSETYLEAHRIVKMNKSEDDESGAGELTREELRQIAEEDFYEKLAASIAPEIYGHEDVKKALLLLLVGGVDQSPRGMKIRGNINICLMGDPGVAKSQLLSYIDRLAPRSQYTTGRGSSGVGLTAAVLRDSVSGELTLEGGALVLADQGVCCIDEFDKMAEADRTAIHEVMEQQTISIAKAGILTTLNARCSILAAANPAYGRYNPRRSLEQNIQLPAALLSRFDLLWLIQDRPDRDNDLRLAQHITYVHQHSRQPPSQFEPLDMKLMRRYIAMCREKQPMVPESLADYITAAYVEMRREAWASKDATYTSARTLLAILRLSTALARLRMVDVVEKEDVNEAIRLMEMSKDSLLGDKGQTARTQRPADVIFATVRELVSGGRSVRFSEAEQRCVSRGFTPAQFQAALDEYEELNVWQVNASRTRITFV
T5 sequence (Q99613 whole entry): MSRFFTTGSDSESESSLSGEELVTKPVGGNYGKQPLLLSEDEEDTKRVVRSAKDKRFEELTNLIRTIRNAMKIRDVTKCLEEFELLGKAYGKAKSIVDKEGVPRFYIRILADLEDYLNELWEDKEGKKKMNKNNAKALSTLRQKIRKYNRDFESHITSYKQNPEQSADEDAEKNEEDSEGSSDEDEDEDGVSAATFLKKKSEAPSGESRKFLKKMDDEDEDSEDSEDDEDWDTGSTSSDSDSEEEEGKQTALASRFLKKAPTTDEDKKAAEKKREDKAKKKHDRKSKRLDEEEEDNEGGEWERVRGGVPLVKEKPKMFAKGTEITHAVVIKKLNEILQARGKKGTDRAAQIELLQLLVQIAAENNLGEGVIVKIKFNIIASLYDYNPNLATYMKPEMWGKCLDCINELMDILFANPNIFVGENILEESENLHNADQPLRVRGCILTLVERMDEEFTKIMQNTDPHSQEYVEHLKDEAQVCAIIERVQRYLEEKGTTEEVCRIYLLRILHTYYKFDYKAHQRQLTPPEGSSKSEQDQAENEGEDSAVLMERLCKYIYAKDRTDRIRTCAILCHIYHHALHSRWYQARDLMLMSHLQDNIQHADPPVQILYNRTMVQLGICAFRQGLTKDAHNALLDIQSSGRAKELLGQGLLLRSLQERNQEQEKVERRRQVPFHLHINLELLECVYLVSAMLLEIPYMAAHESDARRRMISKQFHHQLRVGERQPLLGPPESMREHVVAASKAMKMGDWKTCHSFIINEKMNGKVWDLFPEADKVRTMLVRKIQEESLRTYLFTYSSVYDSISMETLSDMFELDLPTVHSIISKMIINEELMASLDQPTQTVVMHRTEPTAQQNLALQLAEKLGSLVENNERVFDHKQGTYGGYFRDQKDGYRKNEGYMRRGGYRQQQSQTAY
T6 sequence (O14980 whole entry): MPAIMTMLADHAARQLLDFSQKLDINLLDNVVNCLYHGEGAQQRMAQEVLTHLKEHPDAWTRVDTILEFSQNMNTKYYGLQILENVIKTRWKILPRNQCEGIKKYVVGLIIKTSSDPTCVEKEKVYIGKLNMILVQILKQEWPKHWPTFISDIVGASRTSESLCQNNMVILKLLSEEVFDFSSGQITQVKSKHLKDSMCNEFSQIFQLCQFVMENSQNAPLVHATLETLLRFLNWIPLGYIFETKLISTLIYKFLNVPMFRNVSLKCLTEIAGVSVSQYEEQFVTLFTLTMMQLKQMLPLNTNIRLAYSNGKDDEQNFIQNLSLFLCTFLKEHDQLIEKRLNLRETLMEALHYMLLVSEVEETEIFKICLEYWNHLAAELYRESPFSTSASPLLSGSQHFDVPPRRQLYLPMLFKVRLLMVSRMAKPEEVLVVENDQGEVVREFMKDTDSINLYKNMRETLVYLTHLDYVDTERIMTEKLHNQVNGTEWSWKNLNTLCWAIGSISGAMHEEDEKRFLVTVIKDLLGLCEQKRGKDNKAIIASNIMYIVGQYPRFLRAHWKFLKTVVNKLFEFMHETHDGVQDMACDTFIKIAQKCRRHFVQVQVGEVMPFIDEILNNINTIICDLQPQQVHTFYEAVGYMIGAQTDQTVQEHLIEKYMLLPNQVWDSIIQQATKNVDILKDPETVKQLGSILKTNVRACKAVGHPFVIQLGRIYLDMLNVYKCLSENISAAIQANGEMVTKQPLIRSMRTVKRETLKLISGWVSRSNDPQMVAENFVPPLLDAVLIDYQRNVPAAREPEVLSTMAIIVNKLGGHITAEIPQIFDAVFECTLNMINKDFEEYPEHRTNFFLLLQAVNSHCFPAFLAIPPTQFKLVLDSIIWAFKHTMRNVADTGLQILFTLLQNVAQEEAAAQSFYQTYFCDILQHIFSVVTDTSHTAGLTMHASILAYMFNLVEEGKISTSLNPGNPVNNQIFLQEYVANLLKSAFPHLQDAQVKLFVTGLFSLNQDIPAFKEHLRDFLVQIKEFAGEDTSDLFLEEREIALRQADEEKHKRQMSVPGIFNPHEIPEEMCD
T7 sequence (P18669 whole entry): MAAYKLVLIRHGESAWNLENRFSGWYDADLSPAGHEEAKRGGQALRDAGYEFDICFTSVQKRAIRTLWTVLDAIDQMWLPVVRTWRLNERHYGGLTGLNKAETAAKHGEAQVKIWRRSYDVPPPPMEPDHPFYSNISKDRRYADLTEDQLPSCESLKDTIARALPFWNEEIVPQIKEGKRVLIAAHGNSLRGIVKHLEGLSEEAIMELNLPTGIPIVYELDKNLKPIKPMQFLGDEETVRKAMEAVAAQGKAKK
T12 sequence (Q99460 whole entry): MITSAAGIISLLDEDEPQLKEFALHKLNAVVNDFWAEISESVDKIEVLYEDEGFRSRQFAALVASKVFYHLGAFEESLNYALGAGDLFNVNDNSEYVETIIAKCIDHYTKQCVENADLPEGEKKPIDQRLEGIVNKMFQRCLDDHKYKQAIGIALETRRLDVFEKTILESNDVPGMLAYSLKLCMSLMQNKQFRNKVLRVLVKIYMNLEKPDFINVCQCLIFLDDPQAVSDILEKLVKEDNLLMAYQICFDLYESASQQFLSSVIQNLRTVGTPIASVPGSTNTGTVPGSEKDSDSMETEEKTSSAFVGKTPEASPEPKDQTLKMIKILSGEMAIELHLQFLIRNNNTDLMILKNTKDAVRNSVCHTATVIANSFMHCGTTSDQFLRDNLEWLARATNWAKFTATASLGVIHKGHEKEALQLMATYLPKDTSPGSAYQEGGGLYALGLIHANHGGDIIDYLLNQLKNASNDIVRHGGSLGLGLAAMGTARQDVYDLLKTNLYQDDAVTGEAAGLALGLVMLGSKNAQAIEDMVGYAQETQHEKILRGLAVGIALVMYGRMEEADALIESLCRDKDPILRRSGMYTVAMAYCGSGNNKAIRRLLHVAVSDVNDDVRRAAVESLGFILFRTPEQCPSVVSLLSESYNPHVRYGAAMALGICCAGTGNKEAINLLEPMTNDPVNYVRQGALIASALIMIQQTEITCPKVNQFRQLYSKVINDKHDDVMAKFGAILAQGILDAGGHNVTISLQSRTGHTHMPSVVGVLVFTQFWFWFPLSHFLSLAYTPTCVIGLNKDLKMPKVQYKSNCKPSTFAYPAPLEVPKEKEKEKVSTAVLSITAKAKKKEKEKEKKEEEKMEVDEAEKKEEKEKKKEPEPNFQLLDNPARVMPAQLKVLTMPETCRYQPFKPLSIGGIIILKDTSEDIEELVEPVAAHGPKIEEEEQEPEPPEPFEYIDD
T9 sequence (P62633 whole entry): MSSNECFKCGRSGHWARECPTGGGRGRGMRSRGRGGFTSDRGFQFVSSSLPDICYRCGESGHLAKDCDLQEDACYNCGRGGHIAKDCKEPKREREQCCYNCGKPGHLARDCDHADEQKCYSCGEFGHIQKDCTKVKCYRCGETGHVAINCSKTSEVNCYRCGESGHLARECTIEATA

Row | Compound | fold changes relative to vehicle control ([1]; protein ACAT1, HeLa) | fold changes relative to vehicle control ([2]; captured protein MYH9, HeLa) | fold changes relative to vehicle control ([3]; protein MCM7, HeLa) | fold changes relative to vehicle control ([4]; protein PTBP1, HeLa) | fold changes relative to vehicle control ([5]; protein EIF3C, HeLa) | fold changes relative to vehicle control ([6]; HeLa, protein XPO1) | fold changes relative to vehicle control ([8]; protein MTAP, HeLa) | fold changes relative to vehicle control ([9]; protein CNBP, HeLa) | fold changes relative to vehicle control ([10]; protein YWHAQ, HeLa) | fold changes relative to vehicle control ([11]; captured protein PABPC4, HeLa) | fold changes relative to vehicle control ([12]; protein PSMD1, HeLa) | fold changes relative to vehicle control ([13]; protein RPS27A, HeLa) | fold changes relative to vehicle control ([14]; protein DYNLL1, HeLa) | fold changes relative to vehicle control ([15]; captured protein ACAD11, HeLa) | fold changes relative to vehicle control ([16]; HeLa, protein QTRTD1) | fold changes relative to vehicle control ([2]; HeLa, protein MYH9 (MYOSIN-9)) | fold changes relative to vehicle control ([4]; HeLa, protein PTBP1) | fold changes relative to vehicle control ([6]; HeLa, captured protein XPO1) | fold changes relative to vehicle control ([7]; HeLa, protein PGAM1) | fold changes relative to vehicle control ([8]; HeLa, captured protein MTAP) | also measured
1 | Nc1nc2cccc(-c3ccccc3)c2n1Cc1ccc(Cl)c(Cl)c1 [compound 3] | 0.84 | 0.85 | 1.24 | 1.08 | 1.08 | 1.03 | 0.99 | 0.83 | 0.88 | 0.94 | 1.14 | 1.01 | 0.96 | 1.07 | 0.99 |  |  |  |  |  | fold changes relative to vehicle control ([7]; HeLa, protein PGAM1 (SIMILAR TO PHOSPH[…] 1 ISOFORM 1.)): 0.9 fold
2 | CCCCCCOc1ccc(Cc2cnc(N)nc2N)cc1 [compound 1] | 1.22 | 0.91 | 1.06 | 0.97 | 1.1 | 0.99 | 0.9 | 1.26 | 1.54 | 0.86 | 1.3 | 1.24 | 1.08 | 1.02 | 0.46 |  |  |  |  |  | fold changes relative to vehicle control [7, 17]: 1.5 fold
3 | NCCCNc1ccc(C(=O)NC(CCC(=O)O)C(=O)O)cc1 (stereo not shown) [compound 7] | 0.87 |  | 1.14 |  | 0.88 |  |  |  |  |  | 1.16 |  |  |  |  | 0.9 | 1.05 | 0.94 | 0.99 | 1.01 | fold changes relative to vehicle control ([9]; HeLa, captured protein CNBP): 1.04; fold changes relative to vehicle control ([10]; HeLa, protein YWHAQ): 0.86; fold changes relative to vehicle control ([11]; HeLa, protein PABPC4): 1; fold changes relative to vehicle control [13]: 1.22; fold changes relative to vehicle control ([14]; HeLa, captured protein DYNLL1): 1.18; fold changes relative to vehicle control ([15]; HeLa, protein ACAD11): 1.05; fold changes relative to vehicle control ([16]; protein QTRTD1, HeLa): 0.99
4 | CCCCCCOc1cccc(Cc2cnc(N)nc2N)c1 [compound 2] | 1.75 | 1.23 | 1.47 | 1.55 | 1.19 | 1.09 | 0.78 | 1.8 | 2.29 | 1.2 | 1.78 | 1.5 | 1.05 | 0.77 | 0.93 |  |  |  |  |  | fold changes relative to vehicle control [7, 17]: 2.64 fold
5 | NCCOCCOCC(=O)Nc1nc2ncc(CNc3ccc(C(=O)NC(CCC(=O)O)C(=O)O)cc3)nc2c(=O)[nH]1 (stereo not shown) [compound 6] | 1.31 |  | 1.16 |  | 1.02 |  |  |  |  |  | 1.08 |  |  |  |  | 1.44 | 1.03 | 0.93 | 1.41 | 0.95 | fold changes relative to vehicle control ([9]; HeLa, captured protein CNBP): 1.3; fold changes relative to vehicle control ([10]; HeLa, protein YWHAQ): 1.15; fold changes relative to vehicle control ([11]; HeLa, protein PABPC4): 1.06; fold changes relative to vehicle control ([13]; HeLa, protein RPS27A (UBIQUITIN AND RIBOSOMAL PROTEIN S27A PRECURSOR)): 1.51; fold changes relative to vehicle control ([14]; HeLa, captured protein DYNLL1): 1.14; fold changes relative to vehicle control ([15]; HeLa, protein ACAD11): 0.95; fold changes relative to vehicle control ([16]; protein QTRTD1, HeLa): 0.33
6 | Nc1nc2[nH]cc(CCc3ccc(C(=O)N[C@@H](CCC(=O)O)C(=O)O)cc3)c2c(=O)[nH]1 [PTX, pemetrexed] |  |  |  |  |  |  |  |  |  |  |  |  |  |  |  |  |  |  |  |  | fold changes relative to vehicle control [1]: 0.9; fold changes relative to vehicle control [2]: 0.99; fold changes relative to vehicle control [3]: 0.96; fold changes relative to vehicle control [4]: 0.95; fold changes relative to vehicle control [5]: 0.94; fold changes relative to vehicle control [6]: 0.86; fold changes relative to vehicle control [7]: 1.24; fold changes relative to vehicle control [8]: 0.98; fold changes relative to vehicle control [9]: 1.14; fold changes relative to vehicle control [10]: 1.05; fold changes relative to vehicle control [11]: 0.93; fold changes relative to vehicle control [12]: 0.99; fold changes relative to vehicle control [13]: 1.29; fold changes relative to vehicle control [14]: 1.06; fold changes relative to vehicle control [15]: 0.98; fold changes relative to vehicle control [16]: 0.86
7 | Nc1nc2c(c(=O)[nH]1)N(C=O)C(CNc1ccc(C(=O)N[C@@H](CCC(=O)O)C(=O)O)cc1)CN2 (stereo partly shown) [LEU, leucovorin] | 1 |  | 0.91 |  | 1.02 |  |  |  |  |  | 0.88 |  |  |  |  | 0.97 | 0.98 | 0.92 | 1.05 | 1.13 | fold changes relative to vehicle control ([9]; HeLa, captured protein CNBP): 0.98; fold changes relative to vehicle control ([10]; HeLa, protein YWHAQ): 1.08; fold changes relative to vehicle control ([11]; HeLa, protein PABPC4): 0.83; fold changes relative to vehicle control [13]: 1.29; fold changes relative to vehicle control ([14]; HeLa, captured protein DYNLL1): 1.05; fold changes relative to vehicle control ([15]; HeLa, protein ACAD11): 1.12; fold changes relative to vehicle control ([16]; protein QTRTD1, HeLa): 0.93

From paper PMC6199744, “Development of Chemical Proteomics for the Folateome and Analysis of the Kinetoplastid Folateome” (ACS Infectious Diseases, 2018)
